Laboratory results as given in patent publication US12138256B2, “Treatment of cardiopulmonary disorders” (Bayer Aktiengesellschaft, priority 2021, dated 2024).
Where two headings read alike, the source gives them in different places.

Columns and labels:
[1] = Caco-2 permeability test (C-5.1); assay type: in vitro ADME, human; settings: human
Description: The in vitro permeation of a test compound across a Caco-2 cell monolayer is a well-established assay system to predict the permeability from the gastro-intestinal tract (1). The permeability of the compounds of the present invention in such Caco-2 cells was determined as described below:
Human caco-2 cells were seeded on 24-well insert plates and were allowed to grow for 14-16 days. For permeability studies, the test compounds were dissolved in DMSO and diluted to the final test concentration of 2 μM with transport buffer [Hanks' Buffered Salt Solution, Gibco/Invitrogen, further supplemented with glucose and HEPES]. For determination of the apical to basolateral permeability (PappA-B), the test compound solution was added to the apical side of the cell monolayer and transport buffer to the basolateral side of the monolayer; for determination of the basolateral to apical permeability (PappB-A), the test compound solution was added to the basolateral side of the cell monolayer and transport buffer to the apical side of the monolayer. Samples were taken from the donor compartment at the beginning of the experiment to confirm mass balance. After an incubation of 2 h at 37° C., samples were taken from both compartments. Samples were analyzed by LC-MS/MS, and the apparent permeability coefficients were calculated. Lucifer Yellow permeability was assayed for each cell monolayer to ensure cell monolayer integrity, and the permeability of Atenolol (low permeability marker) and Sulfasalazine (marker for active excretion) was determined for each batch as quality control.

[2] = Protein binding via Transil assay, plasma of all species investigated (C-5.2); assay type: in vitro ADME; settings: Wistar (rat), Beagle (dog), plasma (Transil beads), read-out: free fractions
Description: (§1) The distribution of a test substance between Transil® (phosphatidylcholine lipid bilayers immobilized on silica beads) and plasma is a characteristic feature of any pharmaceutical compound and is dependent on its extent of binding to plasma proteins. By comparing the distribution between Transil® and buffer with the distribution between Transil® and plasma of any species of interest, the unbound fraction in the plasma of the respective animal species can be calculated in vitro. The respective plasma and buffer concentrations were determined via a radioactivity analysis. A detailed description of the method and its validation was published by Schuhmacher et al. (2).

[3] = Protein binding via Transil assay, human plasma; assay type: in vitro ADME
Description: as §1

rabbit saphenous artery = test: Vasorelaxant effect in vitro: phenylephrine-induced contraction of rabbit saphenous artery rings (C-1.1); settings: for % contraction (PE-induced contraction of rabbit saphenous artery): mean +/− SEM; for IC50: Oryctolagus cuniculus, read-out: IC50, inhibition of phenylephrine induced contractions of rabbit saphenous artery rings
Description: Rabbits were anaesthetized and sacrificed by intravenous injection of thiopental sodium (about 50 mg/kg) and exsanguinated. The saphenous artery was removed and divided into rings 3 mm wide. The rings were mounted singly on in each case a pair of triangular hooks open at the end and made of 0.3 mm-thick special wire (Remanium®). Each ring was placed under an initial tension in 5 ml organ baths with Krebs-Henseleit solution which was at 37° C., was gassed with carbogen and had the following composition: NaCl 119 mM; KCl 4.8 mM; CaCl2)×2 H2O 1 mM; MgSO4×7 H2O 1.4 mM; KH2PO41.2 mM; NaHCO325 mM; glucose 10 mM; bovine serum albumin 0.001%. The force of contraction was detected with Statham UC2 cells, amplified and digitized via A/D converters (DAS-1802 HC, Keithley Instruments, Munich) and recorded in parallel on chart recorders. Contractions were induced by addition of phenylephrine.
The concentration necessary to reduce the contraction reached in the preceding control by 50% was calculated from this (IC50). The standard application volume was 5 μl. The proportion of DMSO in the bath solution corresponded to 0.1%.

[4] = Protein binding via Transil assay, monkey plasma; assay type: in vitro ADME; settings: Monkey Cynomolgus plasma
Description: as §1

[5] = Protein binding via Transil assay, rat plasma; assay type: in vitro ADME; settings: Rat Wistar plasma, Transil assay
Description: as §1

[6] = system: anesthetized PAH minipigs; test: PAH minipig model: intratracheal application of dry powder formulations and different hydrates (PennCentury insufflator); assay type: in vivo, Göttingen minipig; settings: intratracheal lactose formulation; lower doses not applicable
Description: After characterization of the effects of comparative example 11 after nebulization of compound solutions, in a further step the effects of crystalline forms of comparative example 11, e.g. sesquihydrate, e.g. example 6e on PAP and BP after inhaled application of different dry powder lactose formulations (table C2.1.8) were studied in anesthetized PAH minipigs.
As reference pure Lactose vehicle was applied in the beginning of each experiment.

In the case of `O=C(O)c1ccc(CCN(CCc2ccccc2OCc2ccc(-c3ccc(C(F)(F)F)cc3)cc2Cl)[C@H]2CCCc3nc(C(=O)O)ccc32)cc1` [comparative example 11, (5S)-5-{[2-(4-carboxyphenyl)ethyl][2-(2-{[3-chloro-4′-(trifluoromethyl)[biphenyl]-4-yl]methoxy}phenyl)ethyl]amino}-5,6,7,8-tetrahydroquinoline-2-carboxylic acid], the Papp at 2 h, 2 μM ([1]; Caco-2, 2 μM, 2 h at 37° C.) is reported as 1.51 ×10⁻⁶ cm/s, the efflux ratio at 2 h, 2 μM ([1]; Caco-2 (2 μM)) is reported as 0.64 ± 0.1 and the Papp A→B at 2 h, 2 μM ([1]; Caco-2 (2 μM), concentration per compound 2.0 or 2.4 μM, read-out: Papp A-B (mean +/− SD)) is reported as 1.51 ± 0.17 ×10⁻⁶ cm/s. For the same compound, the Papp B→A at 2 h, 2 μM ([1]; Caco-2 (2 μM), concentration per compound 2.0 or 2.4 μM, read-out: Papp B-A (mean +/− SD)) was 0.97 ± 0.06 ×10⁻⁶ cm/s, the fraction unbound [2] was under 0.01 and the fraction unbound ([3]; Human (male) plasma, Transil assay, read-out: Fraction unbound) was 0.000764. For the same compound, the fraction unbound ([3]; plasma (Transil beads), human plasma, read-out: plasma fu (fraction unbound)) was 0.000764, the “% contraction (PE-induced contraction of rabbit saphenous artery)” value (from here on “% contraction”) (rabbit saphenous artery; 10^−5 M/L, incubation time 0.5 h) was 19 ± 3.0% and the “% contraction” value (rabbit saphenous artery; 10^−6 M/L, incubation time 0.5 h) was 59 ± 4.9%. For the same compound, the “% contraction” value (rabbit saphenous artery; 10^−7 M/L, incubation time 0.5 h) was 80 ± 4.6%, the “% contraction” value (rabbit saphenous artery; 10^−8 M/L, incubation time 0.5 h) was 92 ± 3.0% and the “% contraction” value (rabbit saphenous artery; 10^−8 M/L, incubation time 2.5 h) was 29 ± 9.3%. For the same compound, the “% contraction” value (rabbit saphenous artery; 10^−9 M/L, incubation time 0.5 h) was 103 ± 3.5%, the “% contraction” value (rabbit saphenous artery; 10^−9 M/L, incubation time 2.5 h) was 47 ± 6.2% and the “% contraction” value (rabbit saphenous artery; 10^−10 M/L, incubation time 0.5 h) was 99 ± 3.4%. For the same compound, the “% contraction” value (rabbit saphenous artery; 10^−10 M/L, incubation time 2.5 h) was 67 ± 5.7%, the “% contraction” value (rabbit saphenous artery; 10^−11 M/L, incubation time 0.5 h) was 100 ± 1.5% and the “% contraction” value (rabbit saphenous artery; 10^−11 M/L, incubation time 2.5 h) was 91 ± 2.0%. The “% contraction” value (rabbit saphenous artery; 10^−12 M/L, incubation time 2.5 h) was 98 ± 0%, the IC50 (rabbit saphenous artery; 0.5 h, 30 min after incubation) was 911 nM and the IC50 (rabbit saphenous artery; preincubation period of 2.5 h) was 0.8 nM. The fraction unbound [4] was 0.000485, the fraction unbound [5] was 0.00224 and the “MED (dry powder)” value [6] was under 7.5 µg/kg.
